Laboratory results from patent US20240018108A1, “METHODS AND COMPOSITIONS FOR INHIBITION OF DIHYDROOROTATE DEHYDROGENASE” (OHIO STATE INNOVATION FOUNDATION, priority 2019, published 2024).

Assays:
[1] = system: MOLM13 cell line; assay: MTS assay for cell growth/viability, MOLM13; format: cell-based; details: Homo sapiens
Experimental: MTS assay for cell growth/viability: Mitochondrial activity was measured to determine cell proliferation using an MTS assay ([…]). Metabolically active cells convert MTS tetrazolium salt into a purple formazan product that is soluble in tissue culture medium. The amount of formazan measured at 490 nm absorbance is proportional to the number of proliferating cells. […] Triplicate wells were set up for each condition. At 96 hours, the MTS reagent was added and after approximately 4 hours the plates were read in a spectrophotometer.
(§1) Biological Activity: Cell proliferation assays were carried out using the MTS assay described herein using two AML cell lines (i.e., MOLM13 and OCI-AML3) with varied genetic backgrounds. The assays were carried out in a blinded fashion.

[2] = target: T1, h-DHODH (Homo sapiens, UniProt Q02127); assay: DHODH enzymatic assay (DCIP reduction); format: biochemical; details: recombinant human enzyme, 25° C., pH 8.0
T1 construct: made in house
T1 sequence (Q02127 whole entry): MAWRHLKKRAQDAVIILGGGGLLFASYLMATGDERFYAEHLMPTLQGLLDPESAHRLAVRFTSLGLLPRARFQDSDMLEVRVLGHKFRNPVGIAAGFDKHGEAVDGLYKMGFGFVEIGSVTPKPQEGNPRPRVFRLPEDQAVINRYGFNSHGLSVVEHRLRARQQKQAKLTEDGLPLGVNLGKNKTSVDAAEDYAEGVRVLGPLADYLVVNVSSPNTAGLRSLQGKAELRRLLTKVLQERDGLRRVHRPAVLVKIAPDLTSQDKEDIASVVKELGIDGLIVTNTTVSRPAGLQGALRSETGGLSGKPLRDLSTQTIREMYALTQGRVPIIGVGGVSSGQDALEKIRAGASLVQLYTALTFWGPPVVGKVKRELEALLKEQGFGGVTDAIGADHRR
Experimental: DHODH Enzymatic Assay: DHODH activity was determined at 25° C. following the reduction of 2,6-dichloroindophenol sodium salt (DCIP) at 600 nm (ε=18 800 M^−1 cm^−1) on a spectrophotometer. The reaction medium used contained 50 mM Tris-HCl, pH 8.0, 0.1% Triton X-100, 0.1 mM LDHO, 0.025 mM CoQ1, and 0.06 mM DCIP. The reaction was started by addition of the enzyme. The inhibitory potency of the compounds was evaluated by measuring the initial velocity of the reaction either in the absence or in the presence of the compounds at the indicated concentrations. The DHODH enzyme used was the recombinant human enzyme prepared as previously described (Helene Munier-Lehmann, et al., J. Med. Chem. 2015, 58:860-877).

[3] = system: OCI-AML3 cell line; assay: MTS assay for cell growth/viability, OCI-AML3; format: cell-based; details: Homo sapiens, OCI-AML-3, 96 hours, Table 2 (one study)
Experimental: (§2) MTS assay for cell growth/viability: Mitochondrial activity was measured to determine cell proliferation using an MTS assay ([…]). Metabolically active cells convert MTS tetrazolium salt into a purple formazan product that is soluble in tissue culture medium. The amount of formazan measured at 490 nm absorbance is proportional to the number of proliferating cells. MTS assays in AML cell lines were carried out with 20K cells plated per well in 96-well plates with Cpd3 or brequinar in a dose series ranging from 0.0001 to 10 μM. Triplicate wells were set up for each condition. At 96 hours, the MTS reagent was added and after approximately 4 hours the plates were read in a spectrophotometer.
as §1

[4] = system: AML cell lines (MOLM13 and OCI-AML3); assay: MTS cell proliferation assay, AML cell lines; format: cell-based; details: range over the two AML cell lines, one study; read-out: growth arrest in AML cell lines, IC50 range
Experimental: as §2, §1

[5] = MOLM-13, Table 3 (second study), dose range of 2 nM to 10000 nM

IC50 [1, 5] [nM] | IC50 [2] [nM] | IC50 [3] [nM] | IC50 ([1]; MOLM-13, 96 hours, Table 2 (one study)) [nM] | IC50 [4] [nM] | SMILES
< 2 | 0.6 | – | – | – | CCOc1cccc(-c2ccc(-c3cc(C(=O)O)c4cc(F)ccc4n3)cc2Cl)c1 [Cpd20, 2-(2-chloro-3′-ethoxy-[1,1′-biphenyl]-4-yl)-6-fluoroquinoline-4-carboxylic acid]
– | 5.5 | – | – | – | CCOc1ccc(-c2ccc(-c3cc(C(=O)O)c4cc(F)ccc4n3)c(F)c2)cc1 [Cpd9, 2-(4′-ethoxy-3-fluoro-[1,1′-biphenyl]-4-yl)-6-fluoroquinoline-4-carboxylic acid]
43 | 6.2 | – | – | – | CCOc1ccc(-c2cc(F)c(-c3cc(C(=O)O)c4cc(F)ccc4n3)c(F)c2)cc1 [Cpd17, 2-(4′-ethoxy-3,5-difluoro-[1,1′-biphenyl]-4-yl)-6-fluoroquinoline-4-carboxylic acid]
< 2 | 1.1 | – | – | – | CCOc1ccc(-c2ccc(-c3cc(C(=O)O)c4cc(F)ccc4n3)cc2Cl)cc1 [Cpd19, 2-(2-chloro-4′-ethoxy-[1,1′-biphenyl]-4-yl)-6-fluoroquinoline-4-carboxylic acid]
13 | 2.43 | 19.5 | 14.5 | 14.5 to 19.5 | CCOc1ccc(-c2ccc(-c3cc(C(=O)O)c4cc(F)ccc4n3)cc2F)cc1 [Cpd1, 2-(4′-ethoxy-2-fluoro-[1,1′-biphenyl]-4-yl)-6-fluoroquinoline-4-carboxylic acid]
< 2 | 0.7 | – | – | – | CCOc1cccc(-c2ccc(-c3cc(C(=O)O)c4cc(F)ccc4n3)c(F)c2)c1 [Cpd10, 2-(3′-ethoxy-3-fluoro-[1,1′-biphenyl]-4-yl)-6-fluoroquinoline-4-carboxylic acid]
16 | < 0.5 | – | – | – | CCOc1cccc(-c2ccc(-c3cc(C(=O)O)c4cc(F)ccc4n3)cc2F)c1 [Cpd2, 2-(3′-ethoxy-2-fluoro-[1,1′-biphenyl]-4-yl)-6-fluoroquinoline-4-carboxylic acid]
< 2 | 1.5 | – | – | – | CCOc1ccc(-c2ccc(-c3cc(C(=O)O)c4cc(F)ccc4n3)cc2C)cc1 [Cpd13, 2-(4′-ethoxy-2-methyl-[1,1′-biphenyl]-4-yl)-6-fluoroquinoline-4-carboxylic acid]
< 2 | 1.34 | – | – | – | CCNc1ccc(-c2ccc(-c3cc(C(=O)O)c4cc(F)ccc4n3)cc2F)cc1 [Cpd6, 2-(4′-(ethylamino)-2-fluoro-[1,1′-biphenyl]-4-yl)-6-fluoroquinoline-4-carboxylic acid]
< 2 | 1.3 | – | – | – | CCOc1cccc(-c2ccc(-c3cc(C(=O)O)c4cc(F)ccc4n3)cc2OC)c1 [Cpd16, 2-(3′-ethoxy-2-methoxy-[1,1′-biphenyl]-4-yl)-6-fluoroquinoline-4-carboxylic acid]
14 | 1.66 | – | – | – | O=C(O)c1cc(-c2ccc(-c3ccccc3F)c(F)c2)nc2ccc(F)cc12 [Cpd5, 2-(2,2′-difluoro-[1,1′-biphenyl]-4-yl)-6-fluoroquinoline-4-carboxylic acid]
< 2 | 1.4 | – | – | – | CCOc1ccc(-c2cc(F)c(-c3cc(C(=O)O)c4cc(F)ccc4n3)cc2F)cc1 [Cpd7, 2-(4′-ethoxy-2,5-difluoro-[1,1′-biphenyl]-4-yl)-6-fluoroquinoline-4-carboxylic acid]
< 2 | 4.2 | – | – | – | CCOc1ccc(-c2ccc(-c3cc(C(=O)O)c4cc(F)ccc4n3)cc2OC)cc1 [Cpd15, 2-(4′-ethoxy-2-methoxy-[1,1′-biphenyl]-4-yl)-6-fluoroquinoline-4-carboxylic acid]
< 2 | 1.4 | – | – | – | CCOc1cccc(-c2ccc(-c3cc(C(=O)O)c4cc(F)ccc4n3)cc2C)c1 [Cpd14]
464 | 22.2 | – | – | – | CCOc1ccc(-c2ccc(-c3cc(C(=O)O)c4cc(F)ccc4n3)c(Cl)c2)cc1 [Cpd24, 2-(3-chloro-4′-ethoxy-[1,1′-biphenyl]-4-yl)-6-fluoroquinoline-4-carboxylic acid]
538 | 11.6 | – | – | – | CCOc1ccc(-c2ccc(-c3cc(C(=O)O)c4cc(F)ccc4n3)c(C)c2)cc1 [Cpd21, 2-(4′-ethoxy-3-methyl-[1,1′-biphenyl]-4-yl)-6-fluoroquinoline-4-carboxylic acid]
532 | 16 | – | – | – | CCOc1ccc(-c2ccc(-c3cc(C(=O)O)c4cc(F)ccc4n3)c(OC)c2)cc1 [Cpd23, 2-(4′-ethoxy-3-methoxy-[1,1′-biphenyl]-4-yl)-6-fluoroquinoline-4-carboxylic acid]
< 2 | 1.2 | – | – | – | CCOc1cccc(-c2cc(F)c(-c3cc(C(=O)O)c4cc(F)ccc4n3)c(F)c2)c1 [Cpd18]
< 2 | < 0.51 | – | – | – | CCOc1cccc(-c2cc(F)c(-c3cc(C(=O)O)c4cc(F)ccc4n3)cc2F)c1 [Cpd8, 2-(3′-ethoxy-2,5-difluoro-[1,1′-biphenyl]-4-yl)-6-fluoroquinoline-4-carboxylic acid]

SMILES | IC50 [1, 5] [nM] | IC50 [2] [nM] | IC50 [3] [nM] | IC50 ([1]; MOLM-13, 96 hours, Table 2 (one study)) [nM] | IC50 [4] [nM]
CCCCOc1cccc(-c2cc(F)c(-c3cc(C(=O)O)c4cc(F)ccc4n3)cc2F)c1 [Cpd11, 2-(3′-butoxy-2,5-difluoro-[1,1′-biphenyl]-4-yl)-6-fluoroquinoline-4-carboxylic acid] | – | < 0.51 | – | – | –
CCCCOc1cccc(-c2ccc(-c3cc(C(=O)O)c4cc(F)ccc4n3)c(F)c2)c1 [Cpd12, 2-(3′-butoxy-3-fluoro-[1,1′-biphenyl]-4-yl)-6-fluoroquinoline-4-carboxylic acid] | < 2 | 0.7 | – | – | –
CCCCOc1cccc(-c2ccc(-c3cc(C(=O)O)c4cc(F)ccc4n3)cc2C)c1 [Cpd25, 2-(3′-butoxy-2-methyl-[1,1′-biphenyl]-4-yl)-6-fluoroquinoline-4-carboxylic acid] | < 2 | < 0.51 | – | – | –
O=C(O)c1cc(-c2ccc(-c3ccccc3)c(F)c2)nc2ccc(F)cc12 [Cpd4] | 41 | 0.72 | – | – | –
CCCCOc1cccc(-c2ccc(-c3cc(C(=O)O)c4cc(F)ccc4n3)cc2F)c1 [Cpd3, 2-(3′-butoxy-2-fluoro-[1,1′-biphenyl]-4-yl)-6-fluoroquinoline-4-carboxylic acid] | 16 | < 0.5 | – | – | –
CCCCOc1cccc(-c2ccc(-c3cc(C(=O)O)c4cc(F)ccc4n3)c(Cl)c2)c1 [Cpd27] | 16 | < 0.51 | – | – | –
CCCCOc1cccc(-c2ccc(-c3cc(C(=O)O)c4cc(F)ccc4n3)c(C)c2)c1 [Cpd22, 2-(3′-butoxy-3-methyl-[1,1′-biphenyl]-4-yl)-6-fluoroquinoline-4-carboxylic acid] | 34 | < 0.51 | – | – | –
CCCCOc1cccc(-c2ccc(-c3cc(C(=O)O)c4cc(F)ccc4n3)c(OC)c2)c1 [Cpd26, 2-(3′-butoxy-3-methoxy-[1,1′-biphenyl]-4-yl)-6-fluoroquinoline-4-carboxylic acid] | 11 | 0.7 | – | – | –
